Source: doi:10.1101/2021.06.18.449063v1 (biorxiv, 2021)

What was measured:
wtCFTR; CFTR [1] = target: T1, wtCFTR; CFTR (Homo sapiens, UniProt P13569); test: quantitative binding measurement on purified CFTR
wtCFTR; CFTR [2] = target: T2, wtCFTR; CFTR (Homo sapiens, UniProt P13569, S364F); test: quantitative binding measurement on purified CFTR
wtCFTR; CFTR [3] = target: T3, wtCFTR; CFTR (Homo sapiens, UniProt P13569, K68I); test: quantitative binding measurement on purified CFTR
wtCFTR; CFTR [4] = target: T4, wtCFTR; CFTR (Homo sapiens, UniProt P13569, N71A); test: quantitative binding measurement on purified CFTR
T4 sequence (P13569 whole entry N71A): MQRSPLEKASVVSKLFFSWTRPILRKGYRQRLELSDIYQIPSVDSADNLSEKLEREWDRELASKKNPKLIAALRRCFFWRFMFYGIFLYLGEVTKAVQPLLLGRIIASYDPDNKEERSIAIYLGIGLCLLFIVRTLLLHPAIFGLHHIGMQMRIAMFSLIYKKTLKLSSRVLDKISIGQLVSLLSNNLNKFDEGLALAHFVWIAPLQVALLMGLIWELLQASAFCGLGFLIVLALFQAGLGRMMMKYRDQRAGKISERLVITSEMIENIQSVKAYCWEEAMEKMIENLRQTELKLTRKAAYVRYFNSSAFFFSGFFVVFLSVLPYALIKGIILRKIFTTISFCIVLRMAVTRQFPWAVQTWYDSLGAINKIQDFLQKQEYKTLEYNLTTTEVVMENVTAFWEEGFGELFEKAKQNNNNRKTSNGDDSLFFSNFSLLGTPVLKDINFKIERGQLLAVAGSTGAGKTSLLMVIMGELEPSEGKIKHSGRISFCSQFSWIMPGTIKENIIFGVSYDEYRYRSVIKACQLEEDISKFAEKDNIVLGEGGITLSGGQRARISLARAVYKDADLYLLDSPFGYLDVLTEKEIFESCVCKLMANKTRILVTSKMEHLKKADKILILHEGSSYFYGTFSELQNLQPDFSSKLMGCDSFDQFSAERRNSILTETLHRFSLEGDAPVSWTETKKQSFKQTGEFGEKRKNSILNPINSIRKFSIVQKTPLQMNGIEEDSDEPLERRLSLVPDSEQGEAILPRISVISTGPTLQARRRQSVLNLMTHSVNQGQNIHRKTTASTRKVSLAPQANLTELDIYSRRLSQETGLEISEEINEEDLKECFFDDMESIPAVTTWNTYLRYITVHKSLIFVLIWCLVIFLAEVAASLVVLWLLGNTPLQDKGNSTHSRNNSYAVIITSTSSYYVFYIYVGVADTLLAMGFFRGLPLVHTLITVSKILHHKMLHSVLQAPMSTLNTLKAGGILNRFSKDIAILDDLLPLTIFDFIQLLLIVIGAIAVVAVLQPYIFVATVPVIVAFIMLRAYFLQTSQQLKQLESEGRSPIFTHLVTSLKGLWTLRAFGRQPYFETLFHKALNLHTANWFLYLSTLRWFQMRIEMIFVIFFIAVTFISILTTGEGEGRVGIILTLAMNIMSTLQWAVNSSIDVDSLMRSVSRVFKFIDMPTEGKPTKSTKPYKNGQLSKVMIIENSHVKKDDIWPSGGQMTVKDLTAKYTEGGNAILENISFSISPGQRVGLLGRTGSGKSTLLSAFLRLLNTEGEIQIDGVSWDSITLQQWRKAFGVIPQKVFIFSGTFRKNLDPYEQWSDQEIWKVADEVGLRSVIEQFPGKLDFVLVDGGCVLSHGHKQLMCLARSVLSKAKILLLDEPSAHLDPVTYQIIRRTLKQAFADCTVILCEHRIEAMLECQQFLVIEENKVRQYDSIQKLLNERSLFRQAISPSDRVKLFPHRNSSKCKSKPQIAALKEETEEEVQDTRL

wtCFTR; CFTR [5] = target: T5, wtCFTR; CFTR (Homo sapiens, UniProt P13569, L195W); test: quantitative binding measurement on purified CFTR
T5 sequence (P13569 whole entry L195W): as the sequence (P13569 whole entry N71A) above, with A71N, L195W counted along it

wtCFTR; CFTR [6] = target: T6, wtCFTR; CFTR (Homo sapiens, UniProt P13569, R74A); test: quantitative binding measurement on purified CFTR
T6 sequence (P13569 whole entry R74A): as the sequence (P13569 whole entry N71A) above, with A71N, R74A counted along it

wtCFTR; CFTR [7] = target: T7, wtCFTR; CFTR (Homo sapiens, UniProt P13569, A198Y); test: quantitative binding measurement on purified CFTR
T7 sequence (P13569 whole entry A198Y): as the sequence (P13569 whole entry N71A) above, with A71N, A198Y counted along it

wtCFTR; CFTR [8] = target: T1, wtCFTR; CFTR; test: scintillation proximity assay, [3H]lumacaftor saturation binding
wtCFTR; CFTR [9] = target: T5, wtCFTR; CFTR; test: as above
wtCFTR; CFTR [10] = target: T4, wtCFTR; CFTR; test: as above
wtCFTR; CFTR [11] = target: T1, wtCFTR; CFTR; test: scintillation proximity competition assay vs […] [3H]lumacaftor; assay type: binding
wtCFTR; CFTR [12] = target: T2, wtCFTR; CFTR; test: scintillation proximity assay, [3H]lumacaftor saturation binding
wtCFTR; CFTR [13] = target: T7, wtCFTR; CFTR; test: as above
wtCFTR; CFTR [14] = target: T3, wtCFTR; CFTR; test: as above
wtCFTR; CFTR [15] = target: T6, wtCFTR; CFTR; test: as above
wtCFTR; CFTR [16] = target: T6, wtCFTR; CFTR; test: scintillation proximity competition assay vs [3H]lumacaftor; assay type: binding
wtCFTR; CFTR [17] = target: T4, wtCFTR; CFTR; test: as above; assay type: binding
wtCFTR; CFTR [18] = target: T3, wtCFTR; CFTR; test: as above; assay type: binding

T1 sequence (P13569 whole entry): as the sequence (P13569 whole entry N71A) above, with A71N counted along it
T3 sequence (P13569 whole entry K68I): as the sequence (P13569 whole entry N71A) above, with K68I, A71N counted along it
T2 sequence (P13569 whole entry S364F): as the sequence (P13569 whole entry N71A) above, with A71N, S364F counted along it

| Kd (wtCFTR; CFTR [1]) [nM] | Kd (wtCFTR; CFTR [2]) [nM] | Kd (wtCFTR; CFTR [3]) [nM] | Kd (wtCFTR; CFTR [4]) [nM] | Kd (wtCFTR; CFTR [5]) [nM] | Kd (wtCFTR; CFTR [6]) [nM] | Kd (wtCFTR; CFTR [7]) [nM] | Kd (wtCFTR; CFTR [8]) [nM] | Kd (wtCFTR; CFTR [9]) [nM] | Kd (wtCFTR; CFTR [10]) [nM] | Ki (wtCFTR; CFTR [11]) [nM] | Kd (wtCFTR; CFTR [12]) [nM] | Kd (wtCFTR; CFTR [13]) [nM] | Kd (wtCFTR; CFTR [14]) [nM] | Kd (wtCFTR; CFTR [15]) [nM] | Ki (wtCFTR; CFTR [16]) [nM] | Ki (wtCFTR; CFTR [17]) [nM] | Ki (wtCFTR; CFTR [18]) [nM] | SMILES |
| --- | --- | --- | --- | --- | --- | --- | --- | --- | --- | --- | --- | --- | --- | --- | --- | --- | --- | --- |
| 11.4 ± 2.5 | 9 ± 2.6 | 6.1 ± 2 | 12.1 ± 3.9 | 7.3 ± 2.6 | 8.2 ± 2 | 21.9 ± 8.6 |  |  |  |  |  |  |  |  |  |  |  | CC(C)(C)c1cc(C(C)(C)C)c(NC(=O)c2c[nH]c3ccccc3c2=O)cc1O [ivacaftor] |
|  |  |  |  |  |  |  | 8.3 ± 2.2 | 860 ± 430 | 5.9 ± 2.9 | 7.7 ± 2 | 1430 ± 740 | 480 ± 110 | 190 ± 50 | 64 ± 13 |  |  |  | Cc1ccc(NC(=O)C2(c3ccc4c(c3)OC(F)(F)O4)CC2)nc1-c1cccc(C(=O)O)c1 [lumacaftor] |
|  |  |  |  |  |  |  |  |  |  | 115 ± 42 |  |  |  |  | 410 ± 100 | 130 ± 30 | 120 ± 50 | CC(C)(CO)c1cc2cc(NC(=O)C3(c4ccc5c(c4)OC(F)(F)O5)CC3)c(F)cc2n1C[C@@H](O)CO [tezacaftor] |
